What was measured:
Type in all cases: in vivo, human
posterior insula Glx = experiment: 1H-MRS Glx levels, posterior insula (pre and post evoked cuff pain); conditions: for pain-evoked increase in posterior insula Glx at the visit: p>0.60; for posterior insula pain-related Glx/tCr level increases: 11 patients; for posterior insula evoked pain Glx levels compared to the placebo visit: p<0.10, FIG. 15
Description: As used herein, “^1H-MRS” is Magnetic Resonance Spectroscopy (1H-MRS) or Proton Magnetic Resonance Spectroscopy. Proton magnetic resonance spectroscopy is a noninvasive imaging technique that allows in vivo determination of biochemical parameters within brain tissue. Proton magnetic resonance spectroscopy data were used to collect brain neurotransmitter levels of Glu and combined glutamate+glutamine metabolites (Glx). This method provides metrics amenable to longitudinal studies such as those proposed here. High-resolution anatomical scans can isolate identical brain structures within individuals over time, thus minimizing error that otherwise would occur because of slight differences in voxel location from 1 evaluation to the next. Previous ^1H-MRS studies have utilized this approach to examine changes in the levels of CNS metabolites in test-retest studies of drug effects. This study expanded the investigation to a variety of regions throughout the brain including: • Right anterior insula • Right posterior insula (This region was acquired twice: once prior to and once following evoked cuff pain. All other voxels were acquired once.) • Perigenual/rostral anterior cingulate cortex (midline) • Dorsal/anterior cingulate cortex (midline) • Precuneus (midline) • Medial prefrontal cortex • Thalamus (optional if time permitted)
Proton magnetic resonance spectroscopy data were collected using the same scanners used for fMRI. Voxels of interest were placed in each of the aforementioned brain regions to obtain levels of Glu and Glx.
Raw data from each single-voxel spectroscopy sequence underwent manual post-processing using ^1H-MRS software (LCModel; Stephen Provencher, Oakville, Ontario, Canada). LCModel uses a linear combination of individual spectra obtained from pure molecular species to fit the experimental spectra. Glx values were calculated as an absolute concentration using the water signal for normalization or as a ratio to creatine. Correction for cerebral spinal fluid (CSF) volume, which can dilute ^1H-MRS-derived Glx values, was also performed. For this we used Voxel Based Morphometry, a toolbox that operates within SPM. Metabolite concentrations were excluded if the Cramér-Rao bounds were greater than 20%.
The analysis visit comparisons stated were analyzed using paired t-tests and/or nonparametric Wilcoxon signed-rank tests of Glx levels at each voxel independently in SPSS. The primary analyses were comparisons between posterior insula and anterior cingulate cortex Glx levels following placebo and NYX-2925 (either 20 or 200 mg) administration.

[1] = tested on: visual stimulus-evoked brain activation; experiment: fMRI of visual stimulation, BOLD activations; conditions: either dose relative to baseline or placebo
Description: (§1) As used herein, “Functional Magnetic Resonance Imaging of Evoked Pain and Visual Stimulation” refers to the following procedure. During evoked pain and visual stimulation fMRI paradigms, participants were lying in the scanner as they received either pressure stimulation to their calf muscle or they experienced an unpleasant visual stimulus. For both pain and visual stimulation, whole-brain Blood Oxygenation Level Dependent (BOLD) functional images were acquired.
Neural mechanisms of this multimodal hypersensitivity were assessed using fMRI. Whole brain BOLD functional images were acquired. The visual stimulation task was 3 minutes in duration and consisted of 2 different visual stimuli presented in a block design. The control stimulus was a fixed crosshair centered in the middle of a solid color background, whereas the experimental stimulus was a flashing annulus checkerboard (8 Hz frequency) (see below figure of example of visual stimuli). […]
Several analyses were conducted with the fMRI resting state and task data. Results were assessed by: 1) a primary analysis, where a finding was deemed significant with a corrected cluster level p<0.05, derived from an uncorrected voxel-wise p<0.001, and 2) an exploratory analysis, where a finding was deemed significant with an uncorrected voxel-wise p<0.005 and having a cluster greater than or equal to 80 contiguous voxels. […]

[2] = tested on: pain-evoked brain activity; experiment: fMRI of evoked cuff pain, BOLD activations
Description: as §1
Each subject underwent a 12-minute block design scan, during which 3 cuff pressure levels (2 equal pressures=15 to 30 and 100 to 115 mmHg; and 1 equal pain=40 to 60/100 numerical rating scale [NRS] units) were applied to the left calf […] using the pressure cuff device in pseudo-random order for a total of 12 pressure stimulations. Pressure levels for each subject were determined during the QST assessment. Each pressure stimulus was applied for 14 seconds. Prior to each pressure stimulus, a 4-second visual cue was presented to signal upcoming cuff pressure to limit any stimulus-onset startle reflex. Subjects' head motion was minimized using foam pads around the head, and a strap secured across the forehead.
As with functional connectivity analyses, pre-processing of images occurs using SPM12. The first 5 images were discarded from the data set and not used for further analysis in order to correct for equilibration effects. Pre-processing steps included: physio-correction, motion correction, coregistration, normalization, and smoothing (FWHM 6 or 8 mm). First level analyses were performed using the general linear model (GLM) implemented in SPM12. Motion parameters from re-alignment were modelled as regressors of no interest. Pain and visual blocks were convolved with a canonical hemodynamic response function and contrasted with rest blocks of no stimulation. These activation maps were then passed up to group-level analyses comparing differences in activations at the analysis visits of interest in SPM. Resulting maps were set at an uncorrected voxel threshold of p<0.001, with p<0.05 FDR or FWE significance corrected for multiple comparisons. The primary analyses were a paired sample t-tests between placebo images and NYX-2925 images (either 20 or 200 mg).
Several analyses were conducted with the fMRI resting state and task data. Results were assessed by: 1) a primary analysis, where a finding was deemed significant with a corrected cluster level p<0.05, derived from an uncorrected voxel-wise p<0.001, and 2) an exploratory analysis, where a finding was deemed significant with an uncorrected voxel-wise p<0.005 and having a cluster greater than or equal to 80 contiguous voxels. Results that met significance in the primary analyses had connectivity values extracted and imported into SPSS v25 where paired t-tests were performed to assess for potential outliers contributing to the finding. Remaining data were then correlated with clinical measures using parametric bivariate Pearson correlations. Results were deemed significant at p<0.05.

CC(C)C(=O)N1CCC[C@]12CN([C@H](C(N)=O)[C@@H](C)O)C2=O [NYX-2925, (2S, 3R)-3-hydroxy-2-((R)-5-isobutyryl-1-oxo-2,5-diazaspiro[3.4]octan-2-yl)butanamide]
resting posterior insula Glx levels following evoked pain (posterior insula Glx; FIG. 5: 20 mg vs placebo, 19 patients, p=0.032): significantly reduce resting posterior insula Glx levels | pain-evoked increase in posterior insula Glx at the visit (posterior insula Glx; NYX-2925 20 mg visit): not significant | posterior insula pain-related Glx/tCr level increases (posterior insula Glx; NYX-2925 20 mg vs placebo, FIG. 3A, p<0.05): reduction in pain related Glx/tCr level increases | posterior insula evoked pain Glx levels compared to the placebo visit (posterior insula Glx; NYX-2925 20 mg): trend for NYX-2925 20 mg and 200 mg to reduce evoked pain Glx levels | posterior insula Glx levels post-pain (ratios to creatine only) (posterior insula Glx; NYX-2925 200 mg compared to placebo, p<0.05): significant decrease in Glx levels | pain-evoked increase in posterior insula Glx at the visit (posterior insula Glx; NYX-2925 200 mg visit): not significant | posterior insula pain-related Glx/tCr level increases (posterior insula Glx; NYX-2925 200 mg vs placebo, FIG. 3B, p<0.05): reduction in pain related Glx/tCr level increases | posterior insula evoked pain Glx levels compared to the placebo visit (posterior insula Glx; NYX-2925 200 mg): trend for NYX-2925 20 mg and 200 mg to reduce evoked pain Glx levels | BOLD activation, visual task [1]: No significant or marginal changes in BOLD activation | pain-evoked brain activity in brain imaging, subject 1 ([2]; 200 mg dose vs placebo, FIGS. 4A, 4B): reduced pain-related brain activity | pain-evoked brain activity in brain imaging, subject 2 ([2]; 200 mg dose vs placebo, FIGS. 4C, 4D): reduction in pain-related brain activity | BOLD activations in right mid cingulate cortex and left primary somatosensory cortex/supplementary motor area ([2]; exploratory, placebo visit to NYX-2925 20 mg visit): decreased | BOLD activations in right putamen/insula, bilateral primary somatosensory/cingulate cortex, left putamen, left posterior insula ([2]; exploratory, placebo visit to NYX-2925 200 mg visit): decreased | BOLD activations, evoked cuff pain task (Pain50 pressure > rest) ([2]; primary analyses): No significant BOLD activations
